The source of these data is patent US7538090B1, “Exogenous surfactant protein B mimic” (Los Angeles Biomedical Research Institute at Harbor-UCLA …, priority 2004, dated 2009).

In one data set the test system is lavaged rat model of RDS. Nature of the data set: Oxygenation response in lavaged rat model of RDS. It is filed as in vivo. The conditions noted are these: for in vivo activity in the rat RDS model system: FIGS. 6A and 6B (oxygenation and dynamic compliance). The source says:
FIG. 6A illustrates an example of an oxygenation response of a lavaged rat model of RDS comparing INFASURF™, a known effective animal based (cow lung lavage that includes surfactant lipids and native Cow SP-B and SP—C proteins) supplement formulation (—◯—), pig native surfactant B in INFASURF™ lipids (—Δ—), Mini-B peptide in simulated INFASURF™ lipids (—▪—), the C-terminal domain of SP-B (residues 63-78) in the oxidized (--♦--) and reduced format (—∇--), a serine derivative the C-terminal domain of SP-B (residues 63-78) with cationic arginines (R) replaced with serine residues, in oxidized (—◯--) and (—∇—) format, the N-terminal domain of SP-B (residues 11 to 25 of native SP-B) in the monomer (—□—) and a dimer (—●--) conformation and ISPL alone (—Δ—). […] A Mini-B construct also compares favorably with the commercial preparation INFASURF™ that contains both the native SP-B and SP—C protein.
(§1) The activity of a Mini-B construct is very similar to that of the commercial preparation INFASURF™ that includes equimolar amounts of native SP-B in native lung surfactant lipids and native SP—C proteins typically used in present RDS therapies.

A short description of data set [1]: Brewster Angle Microscope images of monolayer surfaces on the Langmuir trough. It is filed as physicochemical. Conditions: Mini-B-ISPL lipids vs lipids alone; BAM images, FIG. 11. The source says: Brewster Angle Microscope images of monolayer surfaces of Mini-B-ISPL lipids versus lipids alone on the Langmuir trough as a fimcfion of surface pressure is represented in FIG. 11. […] This Mini-B induced lipid aggregation in monolayers is typical of the effect of native surfactant protein B and surfactant B type peptides.
Brewster Angle Microscope images of monlayer surfaces of Mini-B-synthetic cow lung lipids compared with the commercial surfactant preparation INFASURF™ that contains native SP-B and SP-C proteins is represented in FIG. 12. Preparations containing Mini-B aggregate lipids were similar to the commercial surfactant preparation.

Data set [2] has as its system Rat RDS animal model system. In words: Dynamic compliance measurements in the Rat RDS animal model system. The class given is in vivo. Conditions: peptide in simulated INFASURF lipids (ISPL), FIG. 6B.
Description: FIG. 6B represents dynamic compliance measurements (a measure of lung mechanical plasticity) in the Rat RDS animal model system comparing INFASURF™ replacement formulation, pig native surfactant B in INFASURF™ lipids (—◯—), a Mini-B construct in simulated INFASURF™ lipids (—▪—), the C-terminal domain of SP-B (residues 63-78) in the oxidized (--♦--) and reduced (—∇--) format, a serine derivative the C-terminal domain of SP-B (residues 63-78) with cationic arginines (R) replaced with serine residues, in oxidized (—◯--) and (—∇—) format, the N-terminal domain of SP-B (residues 11 to 25 of native SP-B) in the monomer (—□—) and dimer (—●--) conformation and ISPL alone (—Δ—).
as §1

Data set [3] in a line: Langmuir trough surface activity (surface pressure upon compression, respreading). Conditions: in ISPL lipids vs lipids alone, FIG. 8, 9. It is filed as physicochemical. The source says: Langmuir trough measurements of a Mini-B construct in ISPL lipids are represented in FIG. 8. The peptide at two different concentrations is compared to lipids […]. Lipids alone on the Langmuir trough show very little change in surface pressure with compression of the air-water interface film. […] Higher concentrations of a Mini-B construct in the lipids further enhance the surface activity of the preparation and show the characteristic chances in surface pressure as a function of compression/decompression of the lipid-peptide surface film that are associated with optimal in vitro activity typical of lung surfactant preparations containing SP-B native protein.
FIG. 9 illustrates Langmuir trough measurements of a Mini-B construct in ISPL. The construct was measured at a single concentration to show the consistent pressure dependent reproducibility of the construct in the lipids that is an important criteria of an effective lung surfactant dispersion. Lipids alone on the Langmuir trough show very little change in surface pressure with compression of the air-water interface film. […]

The nature of data set [4]: Surface shear viscosity measurements in ISPL lipid dispersion. It is filed as physicochemical. The conditions noted are these: over surface pressures and compression-expansion cycles, FIG. 7. An excerpt: Surface shear viscosity measurements of a Mini-B construct in a simulated INFASURF™ lipid dispersion ISPL (cow lung lavage lipids) is represented in FIG. 7.

“Also recorded” adds a separate entry of the source.

With “B11-25: N-terminal domain of SP-B (residues 11 to 25 of native SP-B) (CRALIKRIQAMIPKG; Pulmonary surfactant-associated protein B; UniProt P07988 211-225, looked up, fragment) [reference compound]”, the “in vivo activity in the rat RDS model system” value (“in vivo activity” for short) with lavaged rat model of RDS was “relatively ineffective in vivo activity”.

As to “B63-78: C-terminal domain of SP-B (residues 63-78) (GRMLPQLVCRLVLRCS; Pulmonary surfactant-associated protein B; UniProt P07988 263-278, looked up, fragment) [reference compound]”, the “in vivo activity” value with lavaged rat model of RDS is given as “relatively ineffective in vivo activity”.

Consider “CWLCRALIKRIQAMIPKGGRMLPQLVCRLVLRCS [Mini-B, disulfide stabilized 34 residue cyclic peptide joining SP-B residues 8 to 25 and 63 to 78]”, for which, in the data set with lavaged rat model of RDS, the “in vivo activity” value is listed as “exceeds that observed for native pig SP-B in synthetic surfactant lipids”. Moreover, the oxygenation response result in the data set on lavaged rat model of RDS (lavaged rat model of RDS, peptide in simulated INFASURF lipids (ISPL), FIG. 6A) is “outperforms all of the peptide segments of Mini-B separately; also recorded: closely parallels the oxygenation response that is observed for full-length native SP-B protein”. In addition, the “lipid aggregation in monolayers” value in data set [1] was “aggregate”. The dynamic compliance entry in data set [2] was “performs very nearly as well as the commercial preparation”. In data set [3], the “surface activity (surface pressure as a function of film compression)” value is given as “enhances the surface activity”. In addition, the shear surface viscosity result in data set [4] was “remains constant at a large range of surface pressures”.
